Results taken from patent US8901118B2, “Compounds and methods for kinase modulation, and indications therefor” (Plexxikon Inc., priority 2010, dated 2014).

Columns and labels:
[1] = target: Fms kinase (Homo sapiens, UniProt P07333); experiment: Fms kinase biochemical activity assay (AlphaScreen, biotin-(E4Y)10 phosphorylation); details: 100 μM ATP; read-out: Biochemical Inhibition IC50 Fms
Method in brief: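 Fms kinase (1 ng/well) phosphorylating 30 nM biotin-(E4Y)10 with 100 μM ATP in 25 mM Hepes pH 7.5, MgCl2/MnCl2, 5% DMSO, 20 min at 30 °C. Phosphotyrosine detected by AlphaScreen streptavidin donor and PY20 acceptor beads; IC50 from signal versus compound concentration.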

[2] = Relative solubility by turbidity in aqueous buffers (pH 1.5, 4.5, 6.8, 7.4); type: physicochemical; details: for turbidity threshold (L, M, H) 1.4: pH 1.5 (SGF); for turbidity threshold (L, M, H) 4.5: pH 4.5 (SIF); for turbidity threshold (L, M, H) 6.8: pH 6.8 (SIF); for turbidity threshold (L, M, H) 7.4: pH 7.4 (HEPES)
Method in brief: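 Twofold DMSO dilutions of a 25 mM stock were spiked into SGF (0.5M NaCl, pH 1.5), SIF (0.05M NaH2PO4, pH 4.5 and 6.8) or HEPES buffer (10 mM HEPES, 150 mM NaCl, pH 7.4). Absorbance was read at 490, 535 and 650 nm. The endpoint is the concentration crossing O.D. 0.01, averaged across wavelengths.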

[3] = target: T1, CYP1A2 (Homo sapiens, UniProt P05177); experiment: CYP1A2 inhibition (fluorescent substrate CEC); type: in vitro ADME; details: read-out: Cyp IC50 1A2
T1 sequence (P05177 1-516): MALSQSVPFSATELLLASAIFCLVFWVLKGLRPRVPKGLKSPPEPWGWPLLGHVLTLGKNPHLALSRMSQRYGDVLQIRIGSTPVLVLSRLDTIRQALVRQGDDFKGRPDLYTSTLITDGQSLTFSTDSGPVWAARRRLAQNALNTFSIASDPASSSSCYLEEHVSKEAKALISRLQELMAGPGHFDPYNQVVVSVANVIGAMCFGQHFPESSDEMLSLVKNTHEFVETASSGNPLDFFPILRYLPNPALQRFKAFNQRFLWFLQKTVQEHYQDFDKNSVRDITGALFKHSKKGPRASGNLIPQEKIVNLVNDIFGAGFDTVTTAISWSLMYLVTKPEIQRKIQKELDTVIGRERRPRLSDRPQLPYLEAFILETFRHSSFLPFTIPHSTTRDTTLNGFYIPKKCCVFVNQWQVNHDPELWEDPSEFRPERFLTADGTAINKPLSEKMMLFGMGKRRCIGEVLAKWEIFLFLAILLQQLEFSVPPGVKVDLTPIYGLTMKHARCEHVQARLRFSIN
Method in brief: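 Inhibition is measured as the drop in fluorescent metabolite formation across a 10-point compound titration with NADPH regeneration at 37 °C. Incubation lasts 15 min for CYP1A2, 45 min for CYP2C9 and 30 min for CYP2C19 and CYP2D6.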

Fms kinase, sequence (P07333 20-972): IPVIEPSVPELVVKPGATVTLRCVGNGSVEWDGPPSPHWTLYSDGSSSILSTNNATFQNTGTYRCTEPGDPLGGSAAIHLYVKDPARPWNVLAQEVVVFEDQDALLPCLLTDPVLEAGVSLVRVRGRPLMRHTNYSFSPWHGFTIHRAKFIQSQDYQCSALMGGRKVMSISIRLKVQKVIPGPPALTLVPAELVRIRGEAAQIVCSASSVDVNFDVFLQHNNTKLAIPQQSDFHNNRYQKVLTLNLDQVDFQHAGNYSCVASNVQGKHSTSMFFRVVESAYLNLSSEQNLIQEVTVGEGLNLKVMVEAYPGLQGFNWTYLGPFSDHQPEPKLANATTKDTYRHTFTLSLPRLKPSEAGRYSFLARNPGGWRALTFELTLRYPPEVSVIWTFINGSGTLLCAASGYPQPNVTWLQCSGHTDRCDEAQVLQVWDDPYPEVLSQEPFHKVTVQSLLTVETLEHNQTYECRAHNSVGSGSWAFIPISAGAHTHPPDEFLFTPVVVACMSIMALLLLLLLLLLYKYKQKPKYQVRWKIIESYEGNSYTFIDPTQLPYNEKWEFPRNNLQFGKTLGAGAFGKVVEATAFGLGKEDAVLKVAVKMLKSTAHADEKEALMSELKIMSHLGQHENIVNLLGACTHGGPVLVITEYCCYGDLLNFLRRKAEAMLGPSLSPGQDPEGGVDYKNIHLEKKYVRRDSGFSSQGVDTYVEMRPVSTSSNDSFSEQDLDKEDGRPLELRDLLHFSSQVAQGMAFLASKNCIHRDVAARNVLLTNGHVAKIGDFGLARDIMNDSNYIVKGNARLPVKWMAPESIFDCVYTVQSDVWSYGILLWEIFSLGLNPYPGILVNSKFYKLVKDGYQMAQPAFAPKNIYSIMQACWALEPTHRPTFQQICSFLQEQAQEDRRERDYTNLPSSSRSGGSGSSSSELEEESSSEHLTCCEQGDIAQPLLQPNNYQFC

| Structure (SMILES) | IC50 [1] | turbidity threshold (L, M, H) 1.4 [2] | turbidity threshold (L, M, H) 4.5 [2] | turbidity threshold (L, M, H) 6.8 [2] | turbidity threshold (L, M, H) 7.4 [2] | IC50 [3] |
| --- | --- | --- | --- | --- | --- | --- |
| CCCCNc1ncnc2[nH]cc(C(=O)c3ccc(Nc4ccc(OC)nc4)nc3F)c12 [Compound P-4080, [4-(butylamino)-7H-pyrrolo[2,3-d]pyrimidin-5-yl]-[2-fluoro-6-[(6-methoxy-3-pyridyl)amino]-3-pyridyl]methanone] | < 0.01 µM | M (moderate solubility if the threshold concentration is 31.3 μM to 250 μM) | M (moderate solubility if the threshold concentration is 31.3 μM to 250 μM) | H (high solubility if the threshold concentration is >250 μm) | M (moderate solubility if the threshold concentration is 31.3 μM to 250 μM) | > 10 µM |
| CCNc1ncnc2[nH]cc(C(=O)c3ccc(Nc4ccc(OC)nc4)nc3F)c12 [Compound P-4081, [4-(ethylamino)-7H-pyrrolo[2,3-d]pyrimidin-5-yl]-[2-fluoro-6-[(6-methoxy-3-pyridyl)amino]-3-pyridyl]methanone] | < 0.01 µM | H (high solubility if the threshold concentration is >250 μm) | M (moderate solubility if the threshold concentration is 31.3 μM to 250 μM) | H (high solubility if the threshold concentration is >250 μm) | M (moderate solubility if the threshold concentration is 31.3 μM to 250 μM) | > 10 µM |
| COc1ccc(Nc2ccc(C(=O)c3c[nH]c4ncnc(NC5CCCCC5)c34)c(F)n2)cn1 [Compound P-4082, [4-(cyclohexylamino)-7H-pyrrolo[2,3-d]pyrimidin-5-yl]-[2-fluoro-6-[(6-methoxy-3-pyridyl)amino]-3-pyridyl]methanone] | < 0.1 µM | M (moderate solubility if the threshold concentration is 31.3 μM to 250 μM) | L (low solubility if the threshold concentration is <31.3 μM) | L (low solubility if the threshold concentration is <31.3 μM) | L (low solubility if the threshold concentration is <31.3 μM) | > 10 µM |
| CNc1ncnc2[nH]cc(C(=O)c3ccc(Nc4ccc(OC)nc4)nc3F)c12 [Compound P-4083, [2-fluoro-6-[(6-methoxy-3-pyridyl)amino]-3-pyridyl]-[4-(methylamino)-7H-pyrrolo[2,3-d]pyrimidin-5-yl]methanone] | < 0.01 µM | M (moderate solubility if the threshold concentration is 31.3 μM to 250 μM) | M (moderate solubility if the threshold concentration is 31.3 μM to 250 μM) | M (moderate solubility if the threshold concentration is 31.3 μM to 250 μM) | H (high solubility if the threshold concentration is >250 μm) | > 10 µM |
| COc1ccc(Nc2ccc(C(=O)c3c[nH]c4ncnc(NCC(F)(F)F)c34)c(F)n2)cn1 [Compound P-4084, [2-fluoro-6-[(6-methoxy-3-pyridyl)amino]-3-pyridyl]-[4-(2,2,2-trifluoroethylamino)-7H-pyrrolo[2,3-d]pyrimidin-5-yl]methanone] | < 0.01 µM | M (moderate solubility if the threshold concentration is 31.3 μM to 250 μM) | M (moderate solubility if the threshold concentration is 31.3 μM to 250 μM) | M (moderate solubility if the threshold concentration is 31.3 μM to 250 μM) | H (high solubility if the threshold concentration is >250 μm) | > 10 µM |
| O=C(c1ccc(NC2CCC(F)(F)CC2)nc1)c1c[nH]c2ncnc(NCC(F)(F)F)c12 [Compound P-4087, [6-[(4,4-difluorocyclohexyl)amino]-3-pyridyl]-[4-(2,2,2-trifluoroethylamino)-7H-pyrrolo[2,3-d]pyrimidin-5-yl]methanone] | < 0.1 µM | H (high solubility if the threshold concentration is >250 μm) | M (moderate solubility if the threshold concentration is 31.3 μM to 250 μM) | M (moderate solubility if the threshold concentration is 31.3 μM to 250 μM) | M (moderate solubility if the threshold concentration is 31.3 μM to 250 μM) | > 10 µM |
| O=C(c1ccc(NC2CCC(F)(F)CC2)nc1)c1c[nH]c2ncnc(NC3CC3)c12 [Compound P-4088, [4-(cyclopropylamino)-7H-pyrrolo[2,3-d]pyrimidin-5-yl]-[6-[(4,4-difluorocyclohexyl)amino]-3-pyridyl]methanone] | < 0.1 µM | H (high solubility if the threshold concentration is >250 μm) | M (moderate solubility if the threshold concentration is 31.3 μM to 250 μM) | M (moderate solubility if the threshold concentration is 31.3 μM to 250 μM) | M (moderate solubility if the threshold concentration is 31.3 μM to 250 μM) | > 10 µM |
| CNc1ncnc2[nH]cc(C(=O)c3ccc(NC4CCC(F)(F)CC4)nc3)c12 [Compound P-4089, [6-[(4,4-difluorocyclohexyl)amino]-3-pyridyl]-[4-(methylamino)-7H-pyrrolo[2,3-d]pyrimidin-5-yl]methanone] | < 0.1 µM | H (high solubility if the threshold concentration is >250 μm) | M (moderate solubility if the threshold concentration is 31.3 μM to 250 μM) | M (moderate solubility if the threshold concentration is 31.3 μM to 250 μM) | M (moderate solubility if the threshold concentration is 31.3 μM to 250 μM) | > 10 µM |
| O=C(c1ccc(Nc2ccc(C(F)(F)F)nc2)nc1F)c1c[nH]c2ncnc(NC3CC3)c12 [Compound P-4091, [4-(cyclopropylamino)-7H-pyrrolo[2,3-d]pyrimidin-5-yl]-[2-fluoro-6-[[6-(trifluoromethyl)-3-pyridyl]amino]-3-pyridyl]methanone] | < 0.1 µM | H (high solubility if the threshold concentration is >250 μm) | M (moderate solubility if the threshold concentration is 31.3 μM to 250 μM) | M (moderate solubility if the threshold concentration is 31.3 μM to 250 μM) | M (moderate solubility if the threshold concentration is 31.3 μM to 250 μM) | > 10 µM |
| CNc1ncnc2[nH]cc(C(=O)c3ccc(Nc4ccc(C(F)(F)F)nc4)nc3F)c12 [Compound P-4092, [2-fluoro-6-[[6-(trifluoromethyl)-3-pyridyl]amino]-3-pyridyl]-[4-(methylamino)-7H-pyrrolo[2,3-d]pyrimidin-5-yl]methanone] | < 0.01 µM | M (moderate solubility if the threshold concentration is 31.3 μM to 250 μM) | M (moderate solubility if the threshold concentration is 31.3 μM to 250 μM) | M (moderate solubility if the threshold concentration is 31.3 μM to 250 μM) | M (moderate solubility if the threshold concentration is 31.3 μM to 250 μM) | < 5 µM |
| O=C(c1ccc(Nc2ccc(C3CC3)nc2)nc1F)c1c[nH]c2ncnc(NC3CC3)c12 [Compound P-4093, [4-(cyclopropylamino)-7H-pyrrolo[2,3-d]pyrimidin-5-yl]-[6-[(6-cyclopropyl-3-pyridyl)amino]-2-fluoro-3-pyridyl]methanone] | < 0.01 µM | H (high solubility if the threshold concentration is >250 μm) | L (low solubility if the threshold concentration is <31.3 μM) | L (low solubility if the threshold concentration is <31.3 μM) | L (low solubility if the threshold concentration is <31.3 μM) | > 10 µM |
